Measured values taken from EP1304333A2, “6,7-Oxygenated steroids and uses related thereto” (Inflazyme Pharmaceuticals, Ltd., priority 1996, dated 1998).

Tested on: isolated trachea
Test: Allergen (OA)-induced contraction of isolated trachea from sensitized guinea pigs
Parameters: species or system guinea pig
Details: 20 µM compound
Protocol: The effects of a number of the compounds described herein on allergen-induced bronchoconstriction were evaluated for anti-asthma activity. The ability of a compound to inhibit allergen-induced decreases in lung function in sensitized guinea pigs in response to antigen-challenge is indicative of anti-asthma activity. In particular, the model system is useful in the evaluation of the potential effects of a compound in the treatment of the early asthmatic reaction (EAR) when severe bronchoconstriction occurs.
Guinea pigs were exposed to a nebulized solution of 1% ovalbumin (OA) in saline for 15 min. […] Tracheal rings were prepared and bathed in Krebs-Henseleit solution at 37°C and aerated with 5% CO2 in O2. Tissues were suspended under a resting tension of 2 g and isometric contractions were measured using force-displacement transducers coupled to a polygraph. Tissues were incubated with each compound or 0.1% dimethylsulfoxide (as a control) for 20 min, after which increasing concentrations of OA (0.001 - 100 µg/ml) were added to the tissue. After the final concentration of OA was added and the response was recorded, the tissues were stimulated with 100 µM methacholine which caused maximum contraction of the trachea. The magnitude of the contraction induced by OA in the presence of each compound was expressed as a percentage of the maximum contraction obtained using methacholine (100 µM).

Compound | percentage contraction compared to 100µM methacholine (100%) (Study 2, 0.01 µg/ml OA) [%] | percentage contraction compared to 100µM methacholine (100%) (Study 2, 0.1 µg/ml OA) [%] | percentage contraction compared to 100µM methacholine (100%) (Study 2, 1 µg/ml OA) [%] | percentage contraction compared to 100µM methacholine (100%) (Study 2, 10 µg/ml OA) [%] | percentage contraction compared to 100µM methacholine (100%) (Study 2, 100 µg/ml OA) [%] | percentage contraction compared to 100µM methacholine (100%) (Study 1, 0.001 µg/ml OA) [%] | percentage contraction compared to 100µM methacholine (100%) (Study 1, 0.003 µg/ml OA) [%] | percentage contraction compared to 100µM methacholine (100%) (Study 1, 0.01 µg/ml OA) [%] | percentage contraction compared to 100µM methacholine (100%) (Study 1, 0.03 µg/ml OA) [%] | percentage contraction compared to 100µM methacholine (100%) (Study 1, 0.1 µg/ml OA) [%] | percentage contraction compared to 100µM methacholine (100%) (Study 1, 0.3 µg/ml OA) [%] | percentage contraction compared to 100µM methacholine (100%) (Study 1, 1.0 µg/ml OA) [%] | percentage contraction compared to 100µM methacholine (100%) (Study 1, 3.0 µg/ml OA) [%] | percentage contraction compared to 100µM methacholine (100%) (Study 1, 10.0 µg/ml OA) [%] | percentage contraction compared to 100µM methacholine (100%) (Study 1, 30.0 µg/ml OA) [%]
C[C@]12CC[C@@H](O)C[C@@H]1[C@@H](O)[C@H](O)[C@@H]1[C@@H]2CC[C@]2(C)[C@@H](O)CC[C@@H]12 [Compound 327] | 0 | 0 | 9.1 | 27.3 | 40.9 | – | – | – | – | – | – | – | – | – | –
CC1(C)O[C@@H]2C3C(CC[C@@]4(C)C3CC[C@@H]4O[Si](C)(C)C(C)(C)C)[C@@]3(C)CC[C@H](O)[C@@H](O)C3[C@H]2O1 (stereo partly drawn) [Compound 236] | – | – | – | – | – | 1.9 | 5.6 | 5.6 | 5.6 | 11.1 | 16.7 | 39 | 28 | 39 | 41
C[C@]12CC[C@@H](O)C[C@@H]1[C@@H](O)[C@H](O)[C@@H]1[C@@H]2CC[C@]2(C)C(=O)CC[C@@H]12 [Compound 326] | 0 | 10.25 | 23.4 | 43.9 | 49.1 | – | – | – | – | – | – | – | – | – | –
C[C@]12CC[C@@H](O)[C@H](O)C1[C@@H](O)[C@H](O)C1C2CC[C@]2(C)C(=O)CCC12 (stereo partly drawn) [Compound 145] | – | – | – | – | – | 0.8 | 6.2 | 5.9 | 7.6 | 8.3 | 13.6 | 14.8 | 20.0 | 28.0 | 31.0
